Data from publication PMC2634297 (Bioorganic & medicinal chemistry letters, 2008).

Experiments:
FAAH = FAAH (Mus musculus, UniProt O08914); assay: biochemical
brain serine hydrolases = format: biochemical, mouse
BAT5 (60 kDa hydrolase) = BAT5 (60 kDa hydrolase) (Mus musculus, UniProt Q9Z1Q2); format: biochemical
PLA2g7 = PLA2g7 (Mus musculus, UniProt Q60963); assay: biochemical
KIAA1363 = KIAA1363 (Mus musculus, UniProt Q8BLF1); assay: biochemical
BAT5 = BAT5 (Mus musculus, UniProt Q9Z1Q2); assay: biochemical
Sequence of BAT5 (Q9Z1Q2 whole entry): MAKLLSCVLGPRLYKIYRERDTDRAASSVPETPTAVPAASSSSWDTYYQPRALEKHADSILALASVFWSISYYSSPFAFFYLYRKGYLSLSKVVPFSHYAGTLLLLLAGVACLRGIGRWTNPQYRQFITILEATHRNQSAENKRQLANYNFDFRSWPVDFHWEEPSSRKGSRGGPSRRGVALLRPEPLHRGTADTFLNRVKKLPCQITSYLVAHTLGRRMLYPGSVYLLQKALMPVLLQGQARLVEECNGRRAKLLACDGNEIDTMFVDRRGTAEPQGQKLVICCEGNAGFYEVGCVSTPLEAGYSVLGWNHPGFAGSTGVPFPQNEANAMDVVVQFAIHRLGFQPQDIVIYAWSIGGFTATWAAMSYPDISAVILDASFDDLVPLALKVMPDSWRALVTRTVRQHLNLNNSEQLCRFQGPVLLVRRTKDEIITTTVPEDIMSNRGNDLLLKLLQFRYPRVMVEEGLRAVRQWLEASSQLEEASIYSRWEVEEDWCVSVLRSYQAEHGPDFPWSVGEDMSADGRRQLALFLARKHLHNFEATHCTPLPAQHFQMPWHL

ABHD12 = ABHD12 (Mus musculus, UniProt Q99LR1); assay: biochemical
Sequence of ABHD12 (Q99LR1 whole entry): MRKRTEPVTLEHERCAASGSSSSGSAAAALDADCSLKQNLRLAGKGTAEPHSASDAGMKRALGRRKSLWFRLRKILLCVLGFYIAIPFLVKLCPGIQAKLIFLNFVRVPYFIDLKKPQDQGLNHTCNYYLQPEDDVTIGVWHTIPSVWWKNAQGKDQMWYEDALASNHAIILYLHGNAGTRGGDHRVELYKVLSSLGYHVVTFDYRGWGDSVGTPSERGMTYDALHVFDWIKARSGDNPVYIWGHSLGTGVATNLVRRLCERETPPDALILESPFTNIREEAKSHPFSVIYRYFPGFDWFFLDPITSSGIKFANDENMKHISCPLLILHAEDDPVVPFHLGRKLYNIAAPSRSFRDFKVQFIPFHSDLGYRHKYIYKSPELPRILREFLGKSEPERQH

Sequence of PLA2g7 (Q60963 22-440): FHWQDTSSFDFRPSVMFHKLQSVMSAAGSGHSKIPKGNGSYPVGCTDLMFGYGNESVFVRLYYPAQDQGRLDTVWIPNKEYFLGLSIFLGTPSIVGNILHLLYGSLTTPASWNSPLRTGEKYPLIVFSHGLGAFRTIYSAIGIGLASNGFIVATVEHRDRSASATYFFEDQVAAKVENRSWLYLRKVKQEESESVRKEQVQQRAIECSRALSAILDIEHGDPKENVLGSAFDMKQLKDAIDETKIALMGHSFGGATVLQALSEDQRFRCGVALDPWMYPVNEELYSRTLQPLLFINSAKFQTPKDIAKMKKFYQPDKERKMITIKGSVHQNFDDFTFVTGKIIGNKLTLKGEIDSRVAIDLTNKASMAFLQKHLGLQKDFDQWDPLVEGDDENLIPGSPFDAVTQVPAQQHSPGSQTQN
Sequence of FAAH (O08914 whole entry): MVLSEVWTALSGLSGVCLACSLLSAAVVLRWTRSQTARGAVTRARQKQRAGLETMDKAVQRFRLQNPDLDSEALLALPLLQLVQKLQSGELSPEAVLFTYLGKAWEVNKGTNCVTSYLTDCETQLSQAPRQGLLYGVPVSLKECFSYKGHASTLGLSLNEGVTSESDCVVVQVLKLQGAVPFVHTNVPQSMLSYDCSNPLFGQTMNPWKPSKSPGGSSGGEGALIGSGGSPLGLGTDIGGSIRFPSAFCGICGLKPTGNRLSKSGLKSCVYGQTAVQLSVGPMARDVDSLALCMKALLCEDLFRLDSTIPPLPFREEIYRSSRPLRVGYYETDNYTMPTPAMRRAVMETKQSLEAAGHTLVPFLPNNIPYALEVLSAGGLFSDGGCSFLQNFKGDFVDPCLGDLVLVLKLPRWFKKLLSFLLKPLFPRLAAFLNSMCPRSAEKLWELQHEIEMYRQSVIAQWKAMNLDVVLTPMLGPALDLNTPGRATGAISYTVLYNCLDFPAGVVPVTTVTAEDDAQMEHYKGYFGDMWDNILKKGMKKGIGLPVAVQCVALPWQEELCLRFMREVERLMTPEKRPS
Sequence of KIAA1363 (Q8BLF1 whole entry): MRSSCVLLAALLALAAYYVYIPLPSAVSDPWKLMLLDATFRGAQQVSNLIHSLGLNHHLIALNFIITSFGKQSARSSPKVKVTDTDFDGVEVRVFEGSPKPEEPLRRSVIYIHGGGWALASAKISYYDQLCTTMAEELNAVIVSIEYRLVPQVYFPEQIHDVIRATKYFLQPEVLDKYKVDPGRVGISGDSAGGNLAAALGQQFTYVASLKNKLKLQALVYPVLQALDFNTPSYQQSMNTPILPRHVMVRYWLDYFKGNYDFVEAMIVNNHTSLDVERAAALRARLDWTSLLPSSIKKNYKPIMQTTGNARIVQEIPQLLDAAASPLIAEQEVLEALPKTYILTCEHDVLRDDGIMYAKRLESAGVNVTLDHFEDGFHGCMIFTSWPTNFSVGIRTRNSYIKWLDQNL
Sequence of BAT5 (60 kDa hydrolase) (Q9Z1Q2 whole entry): as the sequence (Q9Z1Q2 whole entry) above

Row | Structure (SMILES) | IC50 (FAAH) [µM] | inhibition of recombinant FAAH (in words) (FAAH) | number of hydrolase activities whose labeling is blocked (brain serine hydrolases) | sensitivity of 60 kDa hydrolase (tentatively BAT5) to inhibitor (BAT5 (60 kDa hydrolase)) | IC50 (PLA2g7) [µM] | inhibition of recombinant PLA2g7 (in words) (PLA2g7) | IC50 (KIAA1363) [µM] | inhibition of recombinant KIAA1363 (in words) (KIAA1363) | IC50 (BAT5) [µM] | inhibition of recombinant BAT5 (in words) (BAT5) | IC50 (ABHD12) [µM]
1 | O=C(NCCCCCCNC(=O)ON=C1CCCCC1)ON=C1CCCCC1 [RHC80267] | 10 to 70 | inhibited | three | sensitive | 10 to 70 | inhibited | 10 to 70 | inhibited | 10 to 70 | inhibited | –
2 | CCCCCCCCCCC[C@@H](C[C@@H]1OC(=O)[C@H]1CCCCCC)OC(=O)[C@H](CC(C)C)NC=O [THL, tetrahydrolipstatin] | – | – | – | sensitive | < 0.1 | inhibited | – | – | < 0.1 | inhibited | < 0.1
